Legend:
Bile acid receptor [1] = molecular target: T1, Bile acid receptor (Homo sapiens, UniProt Q96RI1); assay: Agonist activity at FXR (unknown origin) assessed as ligand-mediated interaction of the SRC1 peptide with protein LBD by FRET assay
T1 sequence (Q96RI1 whole entry): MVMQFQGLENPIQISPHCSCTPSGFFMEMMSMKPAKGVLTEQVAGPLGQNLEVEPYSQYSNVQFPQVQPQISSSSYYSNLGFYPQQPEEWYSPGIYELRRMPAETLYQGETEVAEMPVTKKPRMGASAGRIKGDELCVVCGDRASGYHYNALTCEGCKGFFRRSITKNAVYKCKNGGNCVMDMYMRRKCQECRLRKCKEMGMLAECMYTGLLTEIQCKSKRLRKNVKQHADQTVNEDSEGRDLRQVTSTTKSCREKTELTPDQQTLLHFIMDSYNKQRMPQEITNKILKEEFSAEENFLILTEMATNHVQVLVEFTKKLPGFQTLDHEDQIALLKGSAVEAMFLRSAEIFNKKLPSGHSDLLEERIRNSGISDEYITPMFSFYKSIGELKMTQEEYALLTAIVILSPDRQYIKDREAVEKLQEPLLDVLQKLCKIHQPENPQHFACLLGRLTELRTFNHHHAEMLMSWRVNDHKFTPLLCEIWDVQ

[2] = molecular target: T2, Bile acid receptor (Homo sapiens) (UniProt Q96RI1); assay: Agonist activity at FXR (unknown origin) transfected into african green monkey CV1 cells assessed as ligand-mediated transcription by luciferase reporter/ transient transfection assay relative to GW4064; type: cell-based; conditions: CV-1
T2 sequence (whole entry): T1 sequence (Q96RI1 whole entry)

[3] = molecular target: T2, Bile acid receptor (Homo sapiens); assay: Agonist activity at FXR (unknown origin) assessed as ligand-mediated interaction of the SRC1 peptide with protein LBD by FRET assay relative to GW4064
Bile acid receptor [4] = molecular target: T1, Bile acid receptor; assay: Agonist activity at FXR (unknown origin) transfected into african green monkey CV1 cells assessed as ligand-mediated transcription by luciferase reporter/ transient transfection assay; type: cell-based, CV-1

EC50 (Bile acid receptor [1])	Emax [2]	Emax [3]	EC50 (Bile acid receptor [4])	EC50 (Bile acid receptor [4]; cv-1)	Compound
112 nM	125%	106%	35 nM		CC(C)c1nnn(-c2c(Cl)cccc2Cl)c1COc1ccc(/C=C/c2cccc(C(=O)O)c2)c(Cl)c1
123 nM	47%	80%	145 nM		CC(C)n1nnc(-c2c(Cl)cccc2Cl)c1COc1ccc(/C=C/c2cccc(C(=O)O)c2)c(Cl)c1
110 nM	104%	90%	54 nM		CC(C)c1oc(=O)n(Cc2c(Cl)cccc2Cl)c1COc1ccc(/C=C/c2cccc(C(=O)O)c2)c(Cl)c1
66 nM	82%	99%	35 nM		CC(C)c1oc(=O)n(CCc2c(Cl)cccc2Cl)c1COc1ccc(/C=C/c2cccc(C(=O)O)c2)c(Cl)c1
309 nM	62%	88%	562 nM		CC(C)n1cnc(COc2c(Cl)cccc2Cl)c1COc1ccc(/C=C/c2cccc(C(=O)O)c2)c(Cl)c1
42 nM	100%	105%	20 nM		CC(C)c1cnn(-c2c(Cl)cccc2Cl)c1COc1ccc(/C=C/c2cccc(C(=O)O)c2)c(Cl)c1
617 nM	35%	49%	676 nM		CC(C)c1ncn(CCc2c(Cl)cccc2Cl)c1COc1ccc(/C=C/c2cccc(C(=O)O)c2)c(Cl)c1
1230 nM		51%		< 10000 nM	CC(C)c1occ(COc2c(Cl)cccc2Cl)c1COc1ccc(/C=C/c2cccc(C(=O)O)c2)c(Cl)c1

— ChEMBL document CHEMBL3352747, “Novel heterocyclic scaffolds of GW4064 as farnesoid X receptor agonists” (Bioorg Med Chem Lett, 2015)
